{"source": "ChEMBL document CHEMBL1129469", "about": "“Nonpeptide angiotensin II receptor antagonists: the next generation in antihypertensive therapy” (J Med Chem, 1996)", "key": {"Rattus norvegicus [1]": {"species": "Rattus norvegicus", "experiment": "Oral effective dose required for lowering blood pressure in spontaneous hypertensive rats (SHR)", "type": "functional"}, "Rattus norvegicus [2]": {"species": "Rattus norvegicus", "experiment": "Oral effective dose required for lowering blood pressure in renal hypertensive rats (RHR)", "type": "functional"}, "[3]": {"target": "T1, Angiotensin II receptor (AT-1) type-1 (Rattus norvegicus, UniProt P29089+P25095)", "T1 sequence (P29089 whole entry)": "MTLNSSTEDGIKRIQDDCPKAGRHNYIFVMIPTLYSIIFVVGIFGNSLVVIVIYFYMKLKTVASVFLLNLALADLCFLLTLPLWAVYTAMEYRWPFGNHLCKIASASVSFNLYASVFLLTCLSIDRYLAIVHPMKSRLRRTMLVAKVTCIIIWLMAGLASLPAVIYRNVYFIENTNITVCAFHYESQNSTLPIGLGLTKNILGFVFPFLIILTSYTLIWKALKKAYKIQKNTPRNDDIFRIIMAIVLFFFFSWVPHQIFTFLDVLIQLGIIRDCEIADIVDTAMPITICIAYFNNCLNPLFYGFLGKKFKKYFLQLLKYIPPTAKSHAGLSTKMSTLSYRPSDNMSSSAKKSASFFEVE", "T1 sequence (P25095 whole entry)": "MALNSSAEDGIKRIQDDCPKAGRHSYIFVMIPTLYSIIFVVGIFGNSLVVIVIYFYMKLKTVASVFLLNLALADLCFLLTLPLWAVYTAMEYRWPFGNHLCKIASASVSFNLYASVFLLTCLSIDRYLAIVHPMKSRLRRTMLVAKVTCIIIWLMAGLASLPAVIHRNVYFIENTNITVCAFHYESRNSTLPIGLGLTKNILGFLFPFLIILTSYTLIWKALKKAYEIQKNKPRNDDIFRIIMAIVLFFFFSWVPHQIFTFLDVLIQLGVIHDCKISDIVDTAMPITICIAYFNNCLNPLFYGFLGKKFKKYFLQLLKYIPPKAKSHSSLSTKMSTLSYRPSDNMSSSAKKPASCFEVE", "experiment": "In vitro antagonistic potency against Angiotensin II receptor, type 1 in rat liver", "type": "functional, tissue-based"}, "[4]": {"experiment": "Oral bioavailability in rat", "type": "ADME, organism-based", "details": "in vivo"}, "[5]": {"experiment": "Oral Bioavailability was evaluated in cynomolgus monkeys by oral administration", "type": "ADME, organism-based, Macaca fascicularis", "details": "cynomolgus monkey, in vivo"}, "[6]": {"experiment": "Oral Bioavailability was evaluated in dog by oral administration", "type": "ADME, organism-based, Canis lupus familiaris", "details": "in vivo"}, "Oryctolagus cuniculus [7]": {"species": "Oryctolagus cuniculus", "experiment": "(§1) Compound was tested for its antagonistic activity against angiotensin II-induced contractions in rabbit aorta", "type": "functional"}, "[8]": {"target": "T2, Type-1 angiotensin II receptor (Oryctolagus cuniculus, UniProt P34976)", "T2 sequence (P34976 whole entry)": "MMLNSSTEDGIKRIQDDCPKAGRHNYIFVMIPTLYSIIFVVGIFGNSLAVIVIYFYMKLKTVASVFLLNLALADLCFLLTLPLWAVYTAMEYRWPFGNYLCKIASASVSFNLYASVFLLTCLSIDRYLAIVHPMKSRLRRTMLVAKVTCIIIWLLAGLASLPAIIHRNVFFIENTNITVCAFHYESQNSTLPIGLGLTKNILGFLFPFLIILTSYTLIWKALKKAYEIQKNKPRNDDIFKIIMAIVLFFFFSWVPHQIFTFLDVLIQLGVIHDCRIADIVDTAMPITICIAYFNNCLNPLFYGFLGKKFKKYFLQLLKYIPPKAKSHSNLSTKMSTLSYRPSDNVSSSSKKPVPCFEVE", "experiment": "Binding affinity was evaluated towards Angiotensin II receptor, type 1 in rabbit aorta", "type": "tissue-based"}, "Rattus norvegicus [9]": {"system": "Rattus norvegicus", "experiment": "Compound at an oral dose of 3 mg/Kg was tested for the inhibition of Ang-II induced pressor responses in conscious rats", "type": "functional"}, "Oryctolagus cuniculus [10]": {"species": "Oryctolagus cuniculus", "experiment": "PD' 2 value was evaluated for antagonistic activity in rabbit aorta", "type": "functional"}, "Rattus norvegicus [11]": {"system": "Rattus norvegicus", "experiment": "Oral effective dose required for inhibition of pressor response in conscious rats", "type": "functional"}, "[12]": {"experiment": "Inhibitory activity was evaluated against Angiotensin II receptor, type 2"}, "Rattus norvegicus [13]": {"species": "Rattus norvegicus", "experiment": "pD'2 value was evaluated against in rat portal vein", "type": "functional"}, "Rattus norvegicus [14]": {"system": "Rattus norvegicus", "experiment": "Effective dose was evaluated in pithed normotensive rats by intraveneous administration", "type": "functional", "details": "iv"}, "Rattus norvegicus [15]": {"system": "Rattus norvegicus", "experiment": "Effective dose was evaluated in pithed normotensive rats by oral administration", "type": "functional"}, "Rattus norvegicus [16]": {"species": "Rattus norvegicus", "experiment": "Oral effective dose required for inhibition of Ang II pressor response in rats", "type": "functional"}, "Rattus norvegicus [17]": {"system": "Rattus norvegicus", "experiment": "Dose dependent inhibition of pressor responses to Ang-II in conscious normotensive rat by bolus intravenous administration", "type": "functional", "details": "read-out: ID50 (the source's name)"}, "Rattus norvegicus [18]": {"system": "Rattus norvegicus", "experiment": "Dose dependent inhibition of pressor responses to Ang-II receptor in conscious normotensive rat by intraduodenal administration", "type": "functional", "details": "read-out: ID50 (the source's name)"}, "Canis familiaris": {"system": "Canis familiaris", "experiment": "Compound at an oral dose of 30 mg/Kg was tested for the inhibition of Ang-II induced pressor responses in conscious dog", "type": "functional", "details": "Canis lupus familiaris"}, "HASMC [19]": {"system": "HASMC", "experiment": "Inhibitory activity against Ang II-induced proliferation of human aortic smooth muscle cells in a dose-dependent manner", "type": "functional, cell-based"}, "Oryctolagus cuniculus [20]": {"species": "Oryctolagus cuniculus", "experiment": "as §1", "type": "functional, organism-based"}, "[21]": {"experiment": "Oral bioavailability was evaluated in rhesus monkey", "type": "ADME, organism-based, Macaca mulatta", "details": "in vivo"}, "Rattus norvegicus [22]": {"system": "Rattus norvegicus", "experiment": "Intravenous effective dose required for inhibition of Ang II pressor response in conscious rat", "type": "functional"}, "[23]": {"experiment": "Oral bioavailability was evaluated in rat by oral administration", "type": "ADME, organism-based", "details": "in vivo"}, "Rattus norvegicus [24]": {"system": "Rattus norvegicus", "experiment": "Oral effective dose required for inhibition of Ang II pressor response in conscious rat", "type": "functional"}, "Rattus norvegicus [25]": {"species": "Rattus norvegicus", "experiment": "pA2 value was evaluated against angiotensin II-induced aldosterone release in rat adrenal cortical cells", "type": "functional, cell-based", "details": "read-out: pA2 (converted)"}, "HASMC [26]": {"system": "HASMC", "experiment": "Inhibitory activity against Ang II-induced proliferation of human aortic smooth muscle cells in a dose dependent manner", "type": "functional, cell-based"}, "Rattus norvegicus [27]": {"system": "Rattus norvegicus", "experiment": "Intravenous effective dose required for lowering blood pressure in renal hypertensive rats (RHR)", "type": "functional"}}, "data": [{"smiles": "COc1c(OCc2ccc(-c3ccccc3-c3nn[nH]n3)cc2)cc(C)nc1C", "values": [{"measurement": "ED50", "setting": "Rattus norvegicus [1]", "result": 0.48, "unit": "mg/kg"}, {"measurement": "ED50", "setting": "Rattus norvegicus [2]", "result": 2.5, "unit": "mg/kg"}, {"measurement": "Log Ki", "setting": "[3]", "result": -8.7}]}, {"smiles": "CCCN(Cc1ccc(-c2ccccc2-c2nn[nH]n2)cc1)c1ncccc1C(=O)O", "values": [{"measurement": "bioavailability", "setting": "[4]", "result": "> 50", "unit": "%"}, {"measurement": "bioavailability", "setting": "[5]", "result": "> 50", "unit": "%"}, {"measurement": "Ki", "setting": "[3]", "result": 0.76, "unit": "nM"}, {"measurement": "bioavailability", "setting": "[6]", "result": "> 50", "unit": "%"}]}, {"smiles": "CCCCc1nc(C)n(Cc2sccc2C(=O)OC)c(=O)c1Cc1ccc(-c2ccccc2-c2nnn[nH]2)cc1", "values": [{"measurement": "pKb", "setting": "Oryctolagus cuniculus [7]", "result": 9.5}, {"measurement": "Ki", "setting": "[8]", "result": 0.9, "unit": "nM"}]}, {"smiles": "CCc1nc2c(C)cc(C)nc2n1Cc1ccc2c(c1)C(Cc1nnn[nH]1)c1ccccc1-2", "note": "(stereo not given)", "values": [{"measurement": "inhibition in vivo at 3 mg/kg", "setting": "Rattus norvegicus [9]", "result": 73, "unit": "%"}]}, {"smiles": "CCc1nc2c(n1Cc1ccc(-c3ccccc3-c3nn[nH]n3)cc1)/C(=C/C(=O)O)CCCC2", "values": [{"measurement": "PD' 2", "setting": "Oryctolagus cuniculus [10]", "result": 9.91}]}, {"smiles": "CCCCc1nc(Cl)c(C(=O)OC(C)OC(=O)OCC)n1Cc1ccc(-c2ccccc2-c2nn[nH]n2)cc1", "note": "(stereo not given)", "values": [{"measurement": "ED50", "setting": "Rattus norvegicus [11]", "result": 0.5, "unit": "mg/kg"}]}, {"smiles": "CCCCc1nc(SC)c(C(=O)O)n1Cc1ccc(-c2ccccc2S(=O)(=O)NC(=O)NCCC)cc1", "values": [{"measurement": "IC50", "setting": "[12]", "result": 920, "unit": "nM"}, {"measurement": "pD'2", "setting": "Rattus norvegicus [13]", "result": 10.15}, {"measurement": "ED50", "setting": "Rattus norvegicus [14]", "result": 0.11, "unit": "mg/kg"}, {"measurement": "ED50", "setting": "Rattus norvegicus [15]", "result": 0.7, "unit": "mg/kg"}]}, {"smiles": "CCOc1nc2cccc(C(=O)OC(C)OC(=O)OC3CCCCC3)c2n1Cc1ccc(-c2ccccc2-c2nn[nH]n2)cc1", "note": "(stereo not given) [CANDESARTAN CILEXETIL]", "values": [{"measurement": "ED50", "setting": "Rattus norvegicus [16]", "result": 0.069, "unit": "mg/kg"}]}, {"smiles": "CCCCc1ncc(/C=C(\\Cc2cccs2)C(=O)O)n1Cc1ccc(C(=O)O)cc1", "note": "[EPROSARTAN]", "values": [{"measurement": "ED50", "setting": "Rattus norvegicus [17]", "result": 0.08, "unit": "mg/kg"}, {"measurement": "ED50", "setting": "Rattus norvegicus [18]", "result": 5.5, "unit": "mg/kg"}]}, {"smiles": "CCCCc1nc(CCCC)n(Cc2ccc(-c3ccccc3-c3nnn[nH]3)nc2)n1", "note": "[FORASARTAN]", "values": [{"measurement": "inhibition in vivo at 30 mg/kg", "setting": "Canis familiaris", "result": 91, "unit": "%"}]}, {"smiles": "CCCCC1=NC2(CCCC2)C(=O)N1Cc1ccc(-c2ccccc2-c2nnn[nH]2)cc1", "note": "[IRBESARTAN]", "values": [{"measurement": "IC50", "setting": "HASMC [19]", "result": 320, "unit": "nM"}, {"measurement": "IC50", "setting": "Oryctolagus cuniculus [20]", "result": 4, "unit": "nM"}]}, {"smiles": "CCc1nc2c(C)cc(C)nc2n1Cc1ccc(-c2ccccc2-c2nn[nH]n2)cc1", "note": "[L-158809]", "values": [{"measurement": "bioavailability", "setting": "[4]", "result": 100, "unit": "%"}, {"measurement": "bioavailability", "setting": "[21]", "result": 32, "unit": "%"}, {"measurement": "Kb", "setting": "Oryctolagus cuniculus [7]", "result": 0.28, "unit": "nM"}, {"measurement": "pKB", "setting": "Oryctolagus cuniculus [7]", "result": 9.3}, {"measurement": "ED50", "setting": "Rattus norvegicus [22]", "result": 0.029, "unit": "mg/kg"}, {"measurement": "bioavailability", "setting": "[23]", "result": 70, "unit": "%"}, {"measurement": "ED50", "setting": "Rattus norvegicus [24]", "result": 0.023, "unit": "mg/kg"}, {"measurement": "Kb", "setting": "Rattus norvegicus [25]", "result": 0.0316, "unit": "nM"}]}, {"smiles": "CCCCc1nc(Cl)c(CO)n1Cc1ccc(-c2ccccc2-c2nnn[nH]2)cc1", "note": "[LOSARTAN]", "values": [{"measurement": "IC50", "setting": "HASMC [26]", "result": 0.71, "unit": "nM"}, {"measurement": "Kb", "setting": "Oryctolagus cuniculus [7]", "result": 22, "unit": "nM"}, {"measurement": "pKB", "setting": "Oryctolagus cuniculus [7]", "result": 8.2}, {"measurement": "ED30", "setting": "Rattus norvegicus [2]", "result": 0.59, "unit": "mg/kg"}, {"measurement": "ED30", "setting": "Rattus norvegicus [27]", "result": 0.78, "unit": "mg/kg"}]}]}
